Results on 24 molecules are retold here after PubChem BioAssay AID623883 (Johns Hopkins Ion Channel Center, 2012).

Each structure is given as a SMILES string. The source made the active and inactive calls.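 The calls were made as follows: active = peak hERG inhibition over 30% at some tested dose, together with a fitted dose response curve; inactive = no hERG inhibition at any dose, or no curve fitted.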

For one assay, the target named is Voltage-gated inwardly rectifying potassium channel KCNH2 (Homo sapiens) (UniProt Q12809). The experiment in a line: block of human KCNH2 potassium channel – cell-based, FluxOR thallium flux, concentration-response, set 4, selectivity assay for KCNK9 inhibitor project, SAR follow-up (AID 623883). The settings on record: hERG-expressing cells, FluxOR thallium flux fluorescence.
Voltage-gated inwardly rectifying potassium channel KCNH2 (Homo sapiens), sequence (Q12809 whole entry, looked up): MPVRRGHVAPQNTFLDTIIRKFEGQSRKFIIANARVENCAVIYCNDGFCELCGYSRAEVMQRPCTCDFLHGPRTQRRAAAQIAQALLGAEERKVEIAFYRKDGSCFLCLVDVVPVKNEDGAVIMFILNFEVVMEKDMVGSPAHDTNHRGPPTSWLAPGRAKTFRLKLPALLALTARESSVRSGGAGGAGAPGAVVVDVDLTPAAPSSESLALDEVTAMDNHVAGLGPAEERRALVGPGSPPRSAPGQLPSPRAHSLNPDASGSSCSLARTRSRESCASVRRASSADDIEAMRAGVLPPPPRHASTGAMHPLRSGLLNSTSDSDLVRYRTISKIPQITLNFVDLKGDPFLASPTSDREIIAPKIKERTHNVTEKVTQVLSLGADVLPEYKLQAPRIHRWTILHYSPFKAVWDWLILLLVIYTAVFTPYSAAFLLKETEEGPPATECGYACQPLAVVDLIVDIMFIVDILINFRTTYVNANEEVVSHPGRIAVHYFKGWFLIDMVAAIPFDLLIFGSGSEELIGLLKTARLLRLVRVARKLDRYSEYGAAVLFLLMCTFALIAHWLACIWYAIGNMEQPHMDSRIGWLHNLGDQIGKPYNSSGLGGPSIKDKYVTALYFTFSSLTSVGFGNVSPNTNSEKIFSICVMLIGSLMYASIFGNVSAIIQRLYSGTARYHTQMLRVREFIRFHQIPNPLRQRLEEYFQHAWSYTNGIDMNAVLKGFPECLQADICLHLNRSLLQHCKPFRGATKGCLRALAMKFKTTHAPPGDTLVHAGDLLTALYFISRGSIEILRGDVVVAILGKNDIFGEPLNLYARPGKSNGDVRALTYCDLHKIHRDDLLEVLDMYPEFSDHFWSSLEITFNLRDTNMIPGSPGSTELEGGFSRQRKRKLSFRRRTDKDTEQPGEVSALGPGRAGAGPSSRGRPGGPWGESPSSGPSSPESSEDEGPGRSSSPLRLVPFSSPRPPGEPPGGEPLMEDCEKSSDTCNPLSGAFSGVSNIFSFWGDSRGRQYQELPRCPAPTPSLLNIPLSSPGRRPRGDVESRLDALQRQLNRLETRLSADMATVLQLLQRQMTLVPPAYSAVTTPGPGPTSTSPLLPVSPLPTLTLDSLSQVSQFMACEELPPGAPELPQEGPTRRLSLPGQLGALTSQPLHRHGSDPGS
`COc1ccc(C(=O)CCSc2nnc(-c3ccco3)n2C(C)C2CC3CCC2C3)cc1OC` (stereo not given): the IC50 (usually the point on the concentration scale where inhibition reaches its midpoint) is 15.8 µM.

`CCCC(=O)C1CCN(c2ncnc3c2CN(C(=O)c2ccc(-c4ccccc4)cc2)CC3)CC1`: the IC50 is 7.68 µM.

Turning to `COc1cccc(-c2nnc(SSc3nnc(-c4cccc(OC)c4)n3C(C)C3CC4CCC3C4)n2C(C)C2CC3CCC2C3)c1` (stereo not given), the IC50 was 0.398 µM.

`COc1cccc(CCSc2nnc(-c3ccco3)n2C(C)C2CC3CCC2C3)c1` (stereo not given): the IC50 is 4.52 µM.

With `COc1ccc(NC(=O)CSc2nnc(-c3ccco3)n2C(C)C2CC3CCC2C3)cc1OC` (stereo not given), the 50% inhibitory concentration (IC50) is 25.8 µM.

Regarding `CC(C1CC2CCC1C2)n1c(SCCc2cccc(O)c2)nnc1-c1ccco1` (stereo not given), the IC50 is 8.05 µM.

As to `CC(C1CC2CCC1C2)n1c(SCCc2ccccn2)nnc1-c1ccco1` (stereo not given), the IC50 is 12.6 µM.

`C[C@H]([C@@H]1CC2CC[C@H]1C2)n1c(-c2ccsc2)n[nH]c1=S`: the half-inhibitory concentration (IC50) is 0.839 µM.

Consider `COc1ccc(CSc2nnc(-c3ccco3)n2C(C)C2CC3CCC2C3)cc1OC` (stereo not given), for which the IC50 is 18.2 µM.

Still in this assay, the particulars now being: hERG-expressing cells, at 30 µM (top of the series).
Regarding `CC(C1CC2CCC1C2)n1c(SCC(=O)N2CCN(C)CC2)nnc1-c1ccco1` (stereo not given), the “fluorescence ratio, lower = inhibition” value was “inactive”.

`C[C@H](C1CCCCC1)n1c(-c2ccccc2F)n[nH]c1=S`: the “fluorescence ratio, lower = inhibition” value is “inactive”.

For `CC([C@@H]1CC2CC[C@H]1C2)n1c(-c2ccsc2)n[nH]c1=S` (stereo not given in full), the “fluorescence ratio, lower = inhibition” value is “inactive”.

Consider `CC(C1C[C@H]2CCC1C2)n1c(-c2ccsc2)n[nH]c1=S` (stereo not given in full), for which the “fluorescence ratio, lower = inhibition” value was “inactive”.

Take `CC(C1CC2CCC1C2)n1c(N)nnc1-c1ccco1` (stereo not given): the “fluorescence ratio, lower = inhibition” value is “inactive”.

For `C[C@H]([C@@H]1CC2CC[C@H]1C2)n1c(-c2ccco2)n[nH]c1=S`, the “fluorescence ratio, lower = inhibition” value was “inactive”.

Consider `C[C@H](C1CCCCC1)n1c(-c2ccsc2)n[nH]c1=S`, for which the “fluorescence ratio, lower = inhibition” value is “inactive”.

In the case of `C[C@@H]([C@@H]1CC2CC[C@H]1C2)n1c(-c2ccco2)n[nH]c1=S`, the “fluorescence ratio, lower = inhibition” value is “inactive”.

On to `CC(C1CC2CCC1C2)n1c(SCCN2CCOCC2)nnc1-c1ccco1` (stereo not given), for which the “fluorescence ratio, lower = inhibition” value is “inactive”.

Consider `C[C@@H]([C@@H]1CC2CC[C@H]1C2)n1c(-c2ccsc2)n[nH]c1=S`, for which the “fluorescence ratio, lower = inhibition” value is “inactive”.

As to `C[C@H]([C@@H]1CC2CC[C@H]1C2)n1c(-c2ccccc2F)n[nH]c1=S`, the “fluorescence ratio, lower = inhibition” value is “inactive”.

With `CC(C1CCN(C)CC1)n1c(-c2ccco2)n[nH]c1=S` (stereo not given), the “fluorescence ratio, lower = inhibition” value was “inactive”.

`COc1cccc(-c2n[nH]c(=S)n2[C@H](C)C2CCCCC2)c1`: the “fluorescence ratio, lower = inhibition” value was “inactive”.

Turning to `COc1cccc(-c2n[nH]c(=S)n2[C@H](C)[C@@H]2CC3CC[C@H]2C3)c1`, the “fluorescence ratio, lower = inhibition” value was “inactive”.

Turning to `C[C@H]([C@@H]1CC2CC[C@H]1C2)n1c(-c2ccsc2)n[nH]c1=S`, the “fluorescence ratio, lower = inhibition” value is “inactive”.

Take `CC(C1CC2CCC1C2)n1c(-c2ccco2)nn(CCc2ccncc2)c1=S` (stereo not given): the “fluorescence ratio, lower = inhibition” value is “inactive”.
